20 compounds from patent US20210253568A1, “AZAINDOLE DERIVATIVES AS RHO-KINASE INHIBITORS” (CHIESI FARMACEUTICI S.p.A., priority 2018, published 2021) can be followed below.

One test has as its target ROCK 1 (Homo sapiens, UniProt Q13464). The test is described as follows: In vitro Rho kinase inhibitory activity assay (ADP-Glo), Rho kinase 1. Type of test: biochemical. To be noted: Ki by Cheng-Prusoff from IC50; 10 μM ATP, 25° C., expressed as range of activity. On the procedure:
(§1) The effectiveness of compounds of the present invention to inhibit Rho kinase activity can be determined in a 10 μl assay containing 40 mM Tris pH7.5, 20 mM MgCl2 0.1 mg/mi BSA, 50 μM DTT and 2.5 μM peptide substrate (Myelin Basic Protein) using an ADP-Glo kit (Promega). Compounds were dissolved in DMSO such that the final concentration of DMSO was 1% in the assay. All reactions/incubations are performed at 25° C. Compound (2 ul) and either Rho kinase 1 or 2 (4 μl) were mixed and incubated for 30 mins. Reactions were initiated by addition of ATP (4 μl) such that the final concentration of ATP in the assay was 10 μM. After a 1 hour incubation 10 μl of ADP-Glo Reagent was added and after a further 45 minute incubation 20 ul of Kinase Detection Buffer was added and the mixture incubated for a further 30 minutes. The luminescent signal was measured on a luminometer. […] Compounds were tested in dose-response format and the inhibition of kinase activity was calculated at each concentration of compound. To determine the IC50 (concentration of compound required to inhibit 50% of the enzyme activity) data were fit to a plot of % inhibition vs Log10 compound concentration using a sigmoidal fit with a variable slope and fixing the maximum to 100% and the minimum to 0%. To determine the Ki values the Cheng-Prusoff equation was utilized (Ki=IC50/(1+[S]/Km).

A further test deals with ROCK 2 (Homo sapiens, UniProt O75116). As to the kind of experiment: In vitro Rho kinase inhibitory activity assay (ADP-Glo), Rho kinase 2. Type of test: biochemical. The settings on record: Ki by Cheng-Prusoff from IC50; 10 μM ATP, 25° C., expressed as range of activity. On the procedure: as §1
Sequence of ROCK 2 (O75116 whole entry): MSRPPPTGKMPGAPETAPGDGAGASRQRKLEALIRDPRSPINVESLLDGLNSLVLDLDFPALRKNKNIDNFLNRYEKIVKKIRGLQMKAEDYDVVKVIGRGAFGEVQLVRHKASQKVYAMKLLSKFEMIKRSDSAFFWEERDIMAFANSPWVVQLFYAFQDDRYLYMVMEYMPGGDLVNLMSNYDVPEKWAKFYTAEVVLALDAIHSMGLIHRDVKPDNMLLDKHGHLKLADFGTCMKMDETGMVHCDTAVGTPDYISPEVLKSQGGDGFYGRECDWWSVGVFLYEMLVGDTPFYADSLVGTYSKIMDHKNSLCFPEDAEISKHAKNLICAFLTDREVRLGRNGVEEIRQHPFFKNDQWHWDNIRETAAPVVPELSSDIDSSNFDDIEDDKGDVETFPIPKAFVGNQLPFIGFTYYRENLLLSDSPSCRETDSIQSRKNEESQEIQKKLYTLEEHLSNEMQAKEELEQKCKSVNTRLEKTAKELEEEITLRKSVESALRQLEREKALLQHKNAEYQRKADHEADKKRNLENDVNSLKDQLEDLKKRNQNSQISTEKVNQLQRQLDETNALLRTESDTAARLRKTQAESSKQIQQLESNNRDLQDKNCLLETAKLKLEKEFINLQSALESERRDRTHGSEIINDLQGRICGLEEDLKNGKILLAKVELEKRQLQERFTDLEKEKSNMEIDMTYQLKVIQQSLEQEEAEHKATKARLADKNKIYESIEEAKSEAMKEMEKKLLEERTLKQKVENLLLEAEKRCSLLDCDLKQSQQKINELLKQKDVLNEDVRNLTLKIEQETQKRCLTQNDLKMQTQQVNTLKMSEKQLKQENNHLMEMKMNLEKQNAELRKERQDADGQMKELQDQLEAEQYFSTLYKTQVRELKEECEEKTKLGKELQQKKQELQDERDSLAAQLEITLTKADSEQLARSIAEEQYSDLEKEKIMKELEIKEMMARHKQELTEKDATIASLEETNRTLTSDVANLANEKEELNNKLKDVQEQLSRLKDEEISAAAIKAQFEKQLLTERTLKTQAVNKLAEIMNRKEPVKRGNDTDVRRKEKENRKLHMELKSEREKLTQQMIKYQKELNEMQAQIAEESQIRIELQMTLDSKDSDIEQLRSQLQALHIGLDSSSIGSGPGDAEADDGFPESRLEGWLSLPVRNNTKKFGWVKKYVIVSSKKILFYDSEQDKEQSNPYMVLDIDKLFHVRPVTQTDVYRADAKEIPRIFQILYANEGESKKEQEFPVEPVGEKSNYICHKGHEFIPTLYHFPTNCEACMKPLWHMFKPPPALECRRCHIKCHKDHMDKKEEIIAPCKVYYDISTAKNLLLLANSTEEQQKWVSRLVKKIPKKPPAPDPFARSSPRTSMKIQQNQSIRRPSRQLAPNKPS

The structures appear in SMILES notation.

Sequence of ROCK 1 (Q13464 whole entry): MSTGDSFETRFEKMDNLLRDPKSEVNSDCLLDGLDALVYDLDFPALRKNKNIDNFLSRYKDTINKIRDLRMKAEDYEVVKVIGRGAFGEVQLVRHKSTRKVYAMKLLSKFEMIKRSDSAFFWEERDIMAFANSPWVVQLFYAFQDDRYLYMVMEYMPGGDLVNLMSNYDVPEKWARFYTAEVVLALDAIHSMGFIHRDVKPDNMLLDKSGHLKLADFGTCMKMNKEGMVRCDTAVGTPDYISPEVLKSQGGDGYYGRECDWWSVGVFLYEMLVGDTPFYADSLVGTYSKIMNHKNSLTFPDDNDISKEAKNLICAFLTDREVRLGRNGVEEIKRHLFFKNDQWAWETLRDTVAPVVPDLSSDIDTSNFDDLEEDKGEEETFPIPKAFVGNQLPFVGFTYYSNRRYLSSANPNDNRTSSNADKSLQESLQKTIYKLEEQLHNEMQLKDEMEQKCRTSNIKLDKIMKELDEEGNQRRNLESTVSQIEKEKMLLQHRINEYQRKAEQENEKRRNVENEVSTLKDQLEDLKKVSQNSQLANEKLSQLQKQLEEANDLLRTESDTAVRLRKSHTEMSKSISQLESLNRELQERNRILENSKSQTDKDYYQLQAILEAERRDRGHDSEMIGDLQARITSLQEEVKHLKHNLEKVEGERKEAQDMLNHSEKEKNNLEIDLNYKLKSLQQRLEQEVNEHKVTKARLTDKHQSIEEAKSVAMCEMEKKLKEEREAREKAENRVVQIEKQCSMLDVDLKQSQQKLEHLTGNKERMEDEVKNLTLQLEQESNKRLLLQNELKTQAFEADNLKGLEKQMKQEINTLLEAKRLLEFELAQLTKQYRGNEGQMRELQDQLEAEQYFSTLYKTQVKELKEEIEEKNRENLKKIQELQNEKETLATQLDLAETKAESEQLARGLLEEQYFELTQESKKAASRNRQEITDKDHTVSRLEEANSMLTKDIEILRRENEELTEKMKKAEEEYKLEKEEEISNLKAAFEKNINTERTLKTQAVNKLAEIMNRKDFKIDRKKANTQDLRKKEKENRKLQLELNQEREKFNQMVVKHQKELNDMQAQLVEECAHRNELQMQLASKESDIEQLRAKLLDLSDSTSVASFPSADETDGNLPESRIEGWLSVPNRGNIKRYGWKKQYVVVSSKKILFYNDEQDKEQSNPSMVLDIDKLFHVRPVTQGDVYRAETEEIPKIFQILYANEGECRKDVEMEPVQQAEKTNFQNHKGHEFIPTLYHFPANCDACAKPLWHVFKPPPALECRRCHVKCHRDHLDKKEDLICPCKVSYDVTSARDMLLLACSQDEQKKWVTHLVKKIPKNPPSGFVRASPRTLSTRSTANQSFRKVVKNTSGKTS

For `CN(C(=O)Nc1cc(-c2c[nH]c3nccc(Oc4ccc5c(c4)CNCC5)c23)ccn1)C1CCCCC1` [Example 47, 1-cyclohexyl-1-methyl-3-(4-(4-((1,2,3,4-tetrahydroisoquinolin-7-yl)oxy)-1H-pyrrolo[2,3-b]pyridin-3-yl)pyridin-2-yl)urea], the Ki at ROCK 1 and on ROCK 2 was < 3 nM throughout.
On to `NCc1ccc(Oc2ccnc3[nH]cc(-c4cnc(NC(=O)Cc5ccccc5)s4)c23)cc1` [Example 34, N-(5-(4-(4-(aminomethyl)phenoxy)-1H-pyrrolo[2,3-b]pyridin-3-yl)thiazol-2-yl)-2-phenylacetamide], for which the values for the inhibitory constant (Ki) on ROCK 1 and at ROCK 2 were 3 to 30 nM and < 3 nM, respectively.
For the compound `CC1(C(=O)Nc2cc(-c3c[nH]c4nccc(Oc5ccc6c(c5)CNCC6)c34)ccn2)CC1` [Example 44, 1-methyl-N-(4-(4-((1,2,3,4-tetrahydroisoquinolin-7-yl)oxy)-1H-pyrrolo[2,3-b]pyridin-3-yl)pyridin-2-yl)cyclopropanecarboxamide], the inhibition constant (Ki) is 3 to 30 nM at ROCK 1 and < 3 nM at ROCK 2.
Regarding `c1nc(NCc2nccs2)cc(-c2c[nH]c3nccc(Oc4ccc5c(c4)CNCC5)c23)n1` [Example 30, 6-(4-((1,2,3,4-tetrahydroisoquinolin-7-yl)oxy)-1H-pyrrolo[2,3-b]pyridin-3-yl)-N-(thiazol-2-ylmethyl)pyrimidin-4-amine], the inhibition constant (Ki) at ROCK 1 and on ROCK 2 was < 3 nM throughout.
As to `c1ccc(CNc2cc(-c3c[nH]c4nccc(Oc5cnc6c(c5)CNCC6)c34)ccn2)cc1` [Example 49, N-benzyl-4-(4-((5,6,7,8-tetrahydro-1,6-naphthyridin-3-yl)oxy)-1H-pyrrolo[2,3-b]pyridin-3-yl)pyridin-2-amine], the inhibitory constant (Ki) on ROCK 1 and at ROCK 2 was > 30 nM throughout.
For the compound `O=C(CN1CCCCC1)Nc1cc(-c2c[nH]c3nccc(Oc4ccc5c(c4)CNCC5)c23)ccn1` [Example 43, 2-(piperidin-1-yl)-N-(4-(4-((1,2,3,4-tetrahydroisoquinolin-7-yl)oxy)-1H-pyrrolo[2,3-b]pyridin-3-yl)pyridin-2-yl)acetamide], the inhibitory constant (Ki) at ROCK 1 and on ROCK 2 was < 3 nM throughout.
With `c1ccc(CNc2cncc(-c3c[nH]c4nccc(Oc5ccc6c(c5)CNCC6)c34)c2)cc1` [Example 51, N-benzyl-5-(4-((1,2,3,4-tetrahydroisoquinolin-7-yl)oxy)-1H-pyrrolo[2,3-b]pyridin-3-yl)pyridin-3-amine], the Ki was 3 to 30 nM at ROCK 1 and < 3 nM on ROCK 2.
Consider `c1cc(-c2c[nH]c3nccc(Oc4ccc5c(c4)CNCC5)c23)cc(NC[C@@H]2CCCO2)n1` [Example 18, (S)-N-((tetrahydrofuran-2-yl)methyl)-4-(4-((1,2,3,4-tetrahydroisoquinolin-7-yl)oxy)-1H-pyrrolo[2,3-b]pyridin-3-yl)pyridin-2-amine], for which the Ki at ROCK 1 and at ROCK 2 was < 3 nM throughout.
As for `C[C@H](Nc1cc(-c2c[nH]c3nccc(Oc4ccc5c(c4)CNCC5)c23)ncn1)c1ccccc1` [Example 54, (S)-N-(1-phenylethyl)-6-(4-((1,2,3,4-tetrahydroisoquinolin-7-yl)oxy)-1H-pyrrolo[2,3-b]pyridin-3-yl)pyrimidin-4-amine], the Ki was 3 to 30 nM at ROCK 1 and < 3 nM at ROCK 2.
As to `COCCNc1cc(-c2c[nH]c3nccc(Oc4ccc5c(c4)CNCC5)c23)ccn1` [Example 20, N-(2-methoxyethyl)-4-(4-((1,2,3,4-tetrahydroisoquinolin-7-yl)oxy)-1H-pyrrolo[2,3-b]pyridin-3-yl)pyridin-2-amine], the Ki on ROCK 1 is 3 to 30 nM; at ROCK 2 it was < 3 nM.
As to `c1ccc(CNc2nccc(-c3c[nH]c4nccc(Oc5ccc6c(c5)CNCC6)c34)n2)cc1` [Example 26, N-benzyl-4-(4-((1,2,3,4-tetrahydroisoquinolin-7-yl)oxy)-1H-pyrrolo[2,3-b]pyridin-3-yl)pyrimidin-2-amine], the Ki at ROCK 1 and at ROCK 2 was < 3 nM each time.
In the case of `NCc1cc(F)c(Oc2ncnc3[nH]cc(-c4ccnc(NCc5ccccc5)c4)c23)c(F)c1` [Example 5, 4-(4-(4-(aminomethyl)-2,6-difluorophenoxy)-7H-pyrrolo[2,3-d]pyrimidin-5-yl)-N-benzylpyridin-2-amine], the Ki at ROCK 1 and at ROCK 2 was < 3 nM in each case.
On to `O=C(Cc1ccccc1)Nc1nnc(-c2c[nH]c3nccc(Oc4ccc5c(c4)CNCC5)c23)o1` [Example 14, 2-phenyl-N-(5-(4-((1,2,3,4-tetrahydroisoquinolin-7-yl)oxy)-1H-pyrrolo[2,3-b]pyridin-3-yl)-1,3,4-oxadiazol-2-yl)acetamide], for which the Ki on ROCK 1 and on ROCK 2 was < 3 nM throughout.
Take `c1cncc(CNc2cc(-c3c[nH]c4nccc(Oc5ccc6c(c5)CNCC6)c34)ccn2)c1` [Example 16, N-(pyridin-3-ylmethyl)-4-(4-((1,2,3,4-tetrahydroisoquinolin-7-yl)oxy)-1H-pyrrolo[2,3-b]pyridin-3-yl)pyridin-2-amine]: the Ki on ROCK 1 and at ROCK 2 was < 3 nM in each case.
`CN(C(=O)Nc1cc(-c2c[nH]c3nccc(Oc4ccc5c(c4)CNCC5)c23)ccn1)C1CCOCC1` [Example 48, 1-methyl-1-(tetrahydro-2H-pyran-4-yl)-3-(4-(4-((1,2,3,4-tetrahydroisoquinolin-7-yl)oxy)-1H-pyrrolo[2,3-b]pyridin-3-yl)pyridin-2-yl)urea]: the inhibition constant Ki was 3 to 30 nM on ROCK 1 and < 3 nM at ROCK 2.
For `O=C(NCc1ccccc1)c1cc(-c2c[nH]c3nccc(Oc4ccc5c(c4)CNCC5)c23)on1` [Example 13, N-benzyl-5-(4-((1,2,3,4-tetrahydroisoquinolin-7-yl)oxy)-1H-pyrrolo[2,3-b]pyridin-3-yl)isoxazole-3-carboxamide], the Ki at ROCK 1 is 3 to 30 nM; on ROCK 2 it was < 3 nM.
On to `C[C@@H](Nc1cc(-c2c[nH]c3nccc(Oc4ccc5c(c4)CNCC5)c23)ncn1)c1ccccc1` [Example 52, (R)-N-(1-phenylethyl)-6-(4-((1,2,3,4-tetrahydroisoquinolin-7-yl)oxy)-1H-pyrrolo[2,3-b]pyridin-3-yl)pyrimidin-4-amine], for which the Ki on ROCK 1 and at ROCK 2 was < 3 nM in each case.
Turning to `NCc1cc(F)c(Oc2ccnc3[nH]cc(-c4ccnc(NC(=O)C5CC5)c4)c23)c(F)c1` [Example 11, N-(4-(4-(4-(aminomethyl)-2,6-difluorophenoxy)-1H-pyrrolo[2,3-b]pyridin-3-yl)pyridin-2-yl)cyclopropanecarboxamide], the inhibitory constant (Ki) on ROCK 1 and at ROCK 2 was < 3 nM each time.
For `c1cc(-c2c[nH]c3nccc(Oc4ccc5c(c4)CNCC5)c23)cc(NCC2CCOCC2)n1` [Example 38, N-((tetrahydro-2H-pyran-4-yl)methyl)-4-(4-((1,2,3,4-tetrahydroisoquinolin-7-yl)oxy)-1H-pyrrolo[2,3-b]pyridin-3-yl)pyridin-2-amine], the inhibition constant Ki on ROCK 1 and on ROCK 2 was < 3 nM each time.
With `NCc1ccc(Oc2ccnc3[nH]cc(-c4cccc(OCc5ccccc5)c4)c23)cc1` [Example 3, (4-((3-(3-(benzyloxy)phenyl)-1H-pyrrolo[2,3-b]pyridin-4-yl)oxy)phenyl)methanamine], the inhibition constant Ki at ROCK 1 and at ROCK 2 was > 30 nM in each case.
